The values below come from PMC12408683 (Archives of Toxicology, 2025).

Like-named read-outs stand apart in the source and are kept apart here. A value given as a limit tells only on which side of the number the result lay.

The subject of series [1] is HepG2 cells. Here is the method: (§1) The CBMN assay was performed according to the OECD test guideline #487. Therefore, 2 × 10^5 cells were seeded in 3.5 cm dishes and allowed to adhere for 24 h. […] After the 24 h treatment, the medium was discarded and the cells were incubated with fresh medium, containing 6 µg/mL cytochalasin B as cytokinesis inhibitor. The cells were then left to grow for 72 h, allowing for 1.5–2 × cell cycles. Subsequently, the cells were rinsed with PBS and fixed with ice-cold methanol for 10 min at –20 °C. Cells were washed and embedded with Vectashield® containing DAPI (Vector Labs, Burlingame, CA, USA). The samples were analysed with a Zeiss Axio Observer 7 microscope equipped with an Axiocam 305 mono and a 63 × oil immersion objective (plan-apochromat 63x/1.40 DIC M27) using ZEN Software 3.2. 500 binucleated cells per sample were analysed for micronuclei formation.
(§2) As benchmark response (BMR) for all concentration–response curves (adducts, micronuclei), a 2.0-fold increase vs. solvent control was used (BMC100, critical effect size = 1). The determined BMC100 and the corresponding upper and lower boundary (BMCU and BMCL, respectively) of the 90% confidence interval (CI) were used for potency comparison.

The test system of series [2] is HepG2 cells. On the set-up: method as in Yang et al. 2022. The conditions noted are these: MTT assay; ref Yang et al. 2022; cited from earlier work. On the technique in general: Tetrazolium assays rely on reduction of a dye to a coloured formazan, in cell work by metabolically active cells.
Series [3] concerns HepG2 cells. As to conditions: for MN formation, increase (flow cytometry): 24 h + 72 h recovery.
Description: DMSO served as solvent control, while MMC was used as a positive control. […] Following the recovery time, the cells were detached, harvested by centrifugation (300 g, 5 min), and washed with PBS. […] The fluorescent dye was then activated by photolysis (60 W lightbulb, 30 cm spacing) for 20 min before addition of 9 mL PBS to remove unbound dye. […] 1.5 × 10^4 cells were analysed using the BD FACSDiva software (BD Biosciences, Heidelberg, Germany).
Series [4] concerns primary rat hepatocytes (PRH). The conditions noted are these: read-out: EC50 (cell viability); 24 h. How it is done:
The cell viability was calculated relative to the negative control (set to 100%).

Series [5] has as its system primary human hepatocytes (PHH). Briefly: Resazurin reduction assay (cytotoxicity) in PHH. The conditions noted are these: 24 h. How it is done: (§3) Both cell lines were cultivated in DMEM high glucose without pyruvate (Gibco, Thermo Fisher Scientific, Waltham MA, USA) supplemented with 10% foetal calf serum (FCS, Pan-Biotech, Aidenbach, Germany) and 1% penicillin/streptomycin (Gibco, Thermo Fisher Scientific, Waltham MA, USA). […] Cryopreserved PHH (BioIVT, Brussels, Belgium) pooled from 10 donors (5 × females, 5 × males) were handled according to the protocol of the manufacturer. […] Cells were then diluted, plated for the respective assays in collagen-coated plates, and allowed to adhere for 3 h.
PHH were seeded in 96-well plates precoated with collagen at a cell density of 7 × 10^4/well, left to adhere for 3 h, and treated as described above for 24 h. After treatment, medium was discarded and replaced by resazurin reaction solution containing 44 µM resazurin in NaCl/Pi buffer (1.1 mM KH2PO4, 154 mM NaCl, and 3.7 mM Na2HPO4∙H2O) diluted 1:10 in medium without FCS and P/S. The cells were then incubated for 1.5 h and fluorescence was measured using a Spark® microplate reader (Tecan, Männedorf, Switzerland) with an excitation at 544 nm and emission at 590 nm. The cell viability was calculated relative to the negative control (set to 100%).
On the technique in general: Resazurin is reduced to fluorescent resorufin, in cell work by metabolically active cells.

The test system is the same in series [6]. Briefly: Western blot of γH2AX and p53 in primary human hepatocytes. The conditions noted are these: 24 h; for γH2AX induction vs. control: selected concentrations. How it is done:
as §3
To this end, 5 × 10^5 cells were seeded in 3.5-cm dishes to adhere overnight. […] Proteins were separated by SDS-PAGE followed by the transfer onto a nitrocellulose membrane using the wet blot method. The successful transfer was confirmed by Ponceau S staining of the membrane before blocking with 5% non-fat dry milk in Tris-buffered saline with Tween-20 (MP-TBS-T). Subsequently, the membrane was incubated with the respective primary antibodies overnight at 4 °C. The membranes were washed three times for 5 min with TBS-T before incubating with the respective secondary antibody coupled with horseradish peroxidase. The detection was carried out using the Western Lightning Plus-ECL reagent (Perkin Elmer, Waltham MA, USA) with the c300 chemiluminescence imager (Azure Biosystems, Dublin CA, USA). The used primary and secondary antibodies are detailed in supplementary Table S3.
(In general: Immunoblotting shows a protein as a band on a membrane.)

Another series relates to HepG2-CYP1A2 cells. Here is the method: as §1, §2
For the next series, the system named is rats. On the set-up: method as in Nesslany et al. 2010. The conditions noted are these: up to 2 g ES/kg bw by oral gavage; ref Nesslany et al. 2010; cited from earlier work.
The test system of the next series is HepaRG cells. On the set-up: method as in Le Hegarat et al. 2014. The conditions noted are these: up to 2 mM ES for 24 h; ref Le Hegarat et al. 2014; cited from earlier work.
The next series relates to male F344 gpt delta rats. On the set-up: method as in Suzuki et al. 2012a. The conditions noted are these: top dose 200 mg ES/kg bw for 4 weeks; ref Suzuki et al. 2012a; cited from earlier work.
The next series has as its system parental HepG2 cells. On the set-up: method as in Yang et al. 2020. As to conditions: ref Yang et al. 2020; cited from earlier work.
Where [7] appears, read: endpoint MN (CBMN), BMR 2.0-fold increase.
[8] abbreviates: endpoint MN (CBMN), BMR 2.0-fold increase, 90% CI.
The mark [9] stands for this setting: range stated for both ES and 1′OH-ES.
Where [10] appears, read: endpoint MN (FCM), BMR 2.0-fold increase, 90% CI.

Regarding `C=CC(O)c1ccc(OC)cc1` (stereo not drawn) [1′OH-ES, 1′-hydroxyestragole], in the series with HepG2 cells [1] (50 µM 1′OH-ES (top concentration)), the “MN induction vs solvent control (CBMN)” value is “roughly a twofold induction”. For the same compound, the “concentration at which the increase in MN starts (CBMN)” value with HepG2 cells [1] (24 h + 72 h recovery) was 5 µM. The BMC100 with HepG2 cells [1] (setting [7]) is listed as 32.0 µM; with HepG2 cells [3] (endpoint MN (FCM), BMR 2.0-fold increase), 29.8 µM. For the same compound, the BMCL with HepG2 cells [1] (setting [8]) is 21.0 µM; in the series with HepG2 cells [3] (setting [10]), 21.1 µM. Also, the BMCU in the series with HepG2 cells [1] (setting [8]) stood at 106 µM; with HepG2 cells [3] (setting [10]), 37.6 µM. Moreover, the “BMC for clastogenic response vs BMC for DNA adduct formation” value with HepG2 cells [1] (setting [9]) is reported as 12–17 fold. Moreover, the half-maximal effective concentration (EC50) with HepG2 cells [2] was 102 µM; in [4] it was 23 µM; in series [5] (read-out: EC50 (cell viability)) it was 107 µM. In addition, the “MN formation, increase (flow cytometry)” value in the series with HepG2 cells [3] (25 µM 1′OH-ES) is listed as “twofold”; in the series with HepG2 cells [3] (50 µM 1′OH-ES), 4.6 fold. In the series on HepG2 cells [3] (CBMN and MN flow assay), the “concentrations at which clastogenicity was observed” value is listed as no less than 25 µM. Moreover, the p53 levels result in series [6] is reported as “slightly declined”. For the same compound, the “γH2AX induction vs. control” value in series [6] was “threefold”.
Turning to `C=CCc1ccc(OC)cc1` [ES, estragole], the “MN induction vs solvent control (CBMN)” value with HepG2-CYP1A2 cells (2000 µM ES (top concentration)) is recorded as “roughly a twofold induction”. The “concentration at which the increase in MN starts (CBMN)” value in the series with HepG2-CYP1A2 cells (24 h + 72 h recovery) was found to be 500 µM. Besides, in the series with HepG2-CYP1A2 cells (CBMN and MN flow assay), the “concentrations at which clastogenicity was observed” value is no less than 1000 µM. In the series with HepG2-CYP1A2 cells (setting [7]), the BMC100 stood at 1116 µM. In the series on HepG2-CYP1A2 cells (setting [8]), this compound gave a BMCL of 555 µM and a BMCU of 1755 µM. The “BMC for clastogenic response vs BMC for DNA adduct formation” value with HepG2-CYP1A2 cells (setting [9]) is recorded as 12–17 fold. Moreover, the “MN levels, study outcome” value in the series with rats is “negative”. Moreover, in the series with HepaRG cells, the “DNA strand breaks (comet assay) outcome” value is “negative outcome”. Moreover, the “mutagenicity, increase vs. control” value in the series with male F344 gpt delta rats is given as “twofold”. Besides, in series [5] (test concentrations up to 5 mM), the viability entry is given as “did not affect viability”. Further, the “γH2AX induction vs. control” value in series [6] worked out at 1.4 fold. The DNA adducts entry in the series with parental HepG2 cells is given as “failed to cause DNA adducts”.

What is called EC50 is the midpoint of the concentration-response curve.
